From ChEMBL document CHEMBL1201862, “PubChem BioAssay data set” (2004) come the findings set out here.

Test systems include SK-OV-3; NCI-H460; NCI-H522; MDA-N; RPMI-8226; TK-10; NCI-H23; IGROV-1; DU-145; HOP-92; U-251; BT-549; MCF7; MDA-MB-435; OVCAR-8; OVCAR-5; A549; HCT-15; HCC 2998; MOLT-4.
What all share (test): NCI anticancer screen, dose series, 48 h

Molecules are shown by their SMILES.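 96-well plates; 48 h exposure; 5 concentrations. Endpoints by linear interpolation between flanking doses. Not reached: highest tested concentration assigned. GI50 marks 50% less growth.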 Active and inactive are the calls of the source. Rule as the data show it: active = GI50 up to about 1.1 µM and inactive = higher.

Consider `CN(C)Cc1cc(O)c(O)c(CN(C)C)c1`, for which the GI50 with SK-OV-3 is 54.1 µM (inactive); in the assay on NCI-H460, 21.4 µM (inactive); with NCI-H522 it was 30.3 µM (inactive); with MDA-N it was 57.8 µM (inactive); in the assay with RPMI-8226 it was 35.7 µM (inactive); with TK-10, 37.5 µM (inactive). Also, the GI50 was 37 µM (inactive) in the assay with NCI-H23; 46.3 µM (inactive) with IGROV-1; 35.9 µM (inactive) with DU-145; > 100 µM (inactive) in the assay on HOP-92; 36.6 µM (inactive) in the assay with U-251; 54 µM (inactive) with BT-549. Further, the GI50 in the assay with MCF7 is 39.6 µM (inactive); in the assay on MDA-MB-435, > 100 µM (inactive); with OVCAR-8, 35.2 µM (inactive); with OVCAR-5, 32.4 µM (inactive); in the assay with A549, 46.6 µM (inactive); in the assay with HCT-15, 24.2 µM. Also, the GI50 is 29 µM (inactive) in the assay with HCC 2998 and 27.9 µM (inactive) in the assay on MOLT-4.

Regarding `O=[N+]([O-])/C(Cl)=C(/C(Cl)=C(Cl)Cl)N1CCOCC1`, the GI50 in the assay on SK-OV-3 was 13.8 µM (inactive); in the assay on NCI-H460, 4.33 µM (inactive); with NCI-H522, 2 µM (inactive); in the assay on MDA-N, 2.32 µM (inactive); with RPMI-8226, 2.56 µM (inactive); in the assay on TK-10 it was 3.49 µM (inactive). In addition, the GI50 in the assay with NCI-H23 is 2.24 µM (inactive); with IGROV-1, 1.92 µM (inactive); in the assay on DU-145, 13.7 µM (inactive); in the assay on HOP-92 it was 2.51 µM (inactive); with U-251 it was 10.7 µM (inactive); in the assay on BT-549, 2.46 µM (inactive). Besides, the GI50 in the assay on MCF7 is 1.12 µM (active); in the assay on MDA-MB-435 it was 2.28 µM (inactive); in the assay with OVCAR-8, 2.56 µM (inactive); in the assay with OVCAR-5, 7.93 µM (inactive); with A549 it was 5.73 µM (inactive); in the assay on HCT-15 it was 1.56 µM. Besides, the GI50 with HCC 2998 is 3.09 µM (inactive); in the assay on MOLT-4, 2.58 µM (inactive).

Regarding `COC1(OC)N=C(N)C2(C#N)C(c3ccccc3)NC3=C(CCC3)C12C#N` (stereo not given), the GI50 in the assay on SK-OV-3, with NCI-H460, in the assay with NCI-H522, with MDA-N, in the assay on RPMI-8226 and with TK-10 was > 100 µM (inactive) in each case. Further, the GI50 in the assay with NCI-H23, with IGROV-1, in the assay with DU-145, in the assay with HOP-92, in the assay with U-251 and in the assay on BT-549 was > 100 µM (inactive) in each case. In addition, the GI50 is > 100 µM (inactive) with MCF7; > 100 µM (inactive) in the assay on MDA-MB-435; > 100 µM (inactive) in the assay with OVCAR-8; > 100 µM (inactive) in the assay with OVCAR-5; > 100 µM (inactive) with A549; greater than 100 µM with HCT-15. The GI50 in the assay with HCC 2998 and with MOLT-4 was > 100 µM (inactive) in each case.

As to `CC(C)CCOC(=O)NC(Nc1ccc(F)cc1)(C(F)(F)F)C(F)(F)F`, the GI50 is 63 µM (inactive) in the assay with SK-OV-3; 41.3 µM (inactive) in the assay with NCI-H460; 25.8 µM (inactive) in the assay with NCI-H522; 2.81 µM (inactive) in the assay with MDA-N; 22.1 µM (inactive) in the assay on RPMI-8226; 29.7 µM (inactive) with TK-10. In addition, the GI50 with NCI-H23 is 33.4 µM (inactive); with IGROV-1, 38.2 µM (inactive); in the assay with DU-145, 7.36 µM (inactive); in the assay with HOP-92, 44.2 µM (inactive); in the assay with U-251, 27.3 µM (inactive); with BT-549, 9.75 µM (inactive). Further, the GI50 in the assay with MCF7 is 23.2 µM (inactive); in the assay with MDA-MB-435, 13.7 µM (inactive); in the assay with OVCAR-8, 51.8 µM (inactive); with OVCAR-5, 97.3 µM (inactive); in the assay with A549 it was 23.1 µM (inactive); in the assay on HCT-15, 1.68 µM. Moreover, the GI50 in the assay on HCC 2998 was 21.7 µM (inactive); in the assay on MOLT-4, 19.1 µM (inactive).
